Source: patent US20160058743A1, “METHODS FOR TREATING SENSORIMOTOR IMPAIRMENTS ASSOCIATED WITH CERTAIN TYPES OF STROKE USING AMINOPYRIDINES” (ACORDA THERAPEUTICS, INC., priority 2013, published 2016)
“Also recorded” adds a separate entry of the source.

Assays:
[1] = test system: rats with middle cerebral artery occlusion (MCAO); assay: Hindlimb placing test after MCAO; assay type: in vivo, Sprague Dawley rats
Description: (§1) In particular, the MCAO model in Sprague Dawley rats that was utilized in the experiments presented below mimics the conditions in human ischemic stroke. In this model, focal cerebral infarcts were made by permanent occlusion of the proximal right middle cerebral artery (MCA) using a modification of the method of Tamura et al. (No To Shinkei 1986; 38:747-51). Briefly, the temporalis muscle was bisected and reflected through an incision made midway between the eye and the ear canal. The proximal MCA was exposed through a subtemporal craniectomy without removing the zygomatic arch and without transecting the facial nerve.
(§2) In this experiment, Sprague Dawley rats were anesthetized, subjected to a surgery resulting in middle cerebral artery occlusion (MCAO), treated with and without 4-aminopyridine and behavioral assessments were performed as described below. Treatment was initiated at 4 weeks after stroke.
(§3) Dosing and Treatment: Rats were treated in accordance with the dosing schedule shown in Tables 2A, 2B, 3 and FIG. 2, with each Phase being a two week period of time. A solution of 4-AP was used in this experiment. Dosing was started at 4 weeks after ischemic event. 4-aminopyridine was dissolved in water for injection (WFI, Cellgro) and sterile filtered. Final concentrations of 0.315 mg/mL or 1.0 mg/mL of 4-aminopyridine were delivered at 2 mL/kg by gastric gavage, resulting in final doses of 0.63 mg/kg and 2 mg/kg respectively. Vehicle control treatment was WFI delivered at 2 mL/kg by gastric gavage. This study was divided into three treatment phases (1-3) with each randomized cohort of animals receiving a different dose level during each of the treatment phases. Starting on day 30 after MCAO (Day 30, start of phase 1), the animals received gavage dosing of solutions (2 mL/kg) approximately 12 hours apart, for a total of five doses. The same schedule was repeated with different treatment on Day 44 and Day 58 for phase 2 and 3 of the study, respectively. Animals were not treated during the 10 days between phases (washout period).
(§4) Treatment groups: Dosing was started 4 weeks after MCAO surgery. During these 4 weeks, weekly behavioral assessments, as defined below, were performed. Two dose levels of 4-AP plus vehicle control were assessed, with treatment starting at 4 weeks after ischemic event. All dosing was via gastric gavage, volume not to exceed 2 mL/kg. Animals were given the first dose and behavioral assessments were performed starting 60 minutes after dosing. Animals then received the second dose that day at the appropriate time and b.i.d (preferably every 12 hours) thereafter for 2 more days (3 total days of dosing, 5 total doses). One hour after the 5th dose, animals were subjected to behavioral assessments as defined below. Following the final behavioral assessment, drug was withdrawn for 10 or 11 days, behavior was re-assessed, and then animals were re-challenged with a cross-over treatment (Phase 2 of Table 2B) as described in Tables 2A, 2B and 3, followed by the same behavioral testing and dosing regimen. This cross-over was repeated one more time as well (Phase 3 of Table 2B) (see FIG. 2).
Behavioral test details: Behavioral evaluations were done by evaluators blinded to treatment assignment. Blinded assessments of sensorimotor function were performed just prior to MCAO surgery, 24 hours after MCAO surgery and weekly thereafter until the first phase of dosing using limb placing and body swing behavioral tests. As described above, behavioral assessments were timed exactly with dosing times. Animals were tested one hour after the 1st and 5th doses of each phase (i.e., Days 30 and 32 of the first phase, Days 44 and 46 of the second phase; and Days 58 and 60 of the third phase); animals were also tested during the washout periods on Days 42 and 56. Animals were given the first dose, behavioral assessments were performed starting 60 minutes later, and blood was collected 90 minutes after dosing. […]

[2] = test system: rats with middle cerebral artery occlusion (MCAO); assay: Body swing test after MCAO; assay type: in vivo, Sprague Dawley rats; conditions: for Body Swing Test (% right Swing): Group 3 mean, phase 2
Description: as §1, §2, §3
as §4, with “Animals then received the second dose that day at the appropriate time and b.i.d (preferably every 12 hours) thereafter for 2 more days (3 total days of dosing, 5 total doses). One hour after the 5th dose, animals were subjected to behavioral assessments as defined below.” left out, “This cross-over was repeated one more time as well (Phase 3 of Table 2B) (see FIG. 2).” left out

Nc1ccncc1 [4-AP, 4-aminopyridine]
Effect on hindlimb function (hindlimb placing test) ([1]; Example 2, low (0.63 mg/kg) or high (2 mg/kg) dose b.i.d. p.o., started 4 weeks post MCAO, dose-responsive, reversible): effective to improve hindlimb function; also recorded: significant improvement | Hindlimb Placing Total Score ([1]; Group 1, D 32 post-MCAO, High 4-AP 2.0 mg/kg b.i.d. p.o., 1 h after 5th dose, group Mean, N=15, 0=normal, 6=maximally impaired): 0.97 | Hindlimb Placing Total Score ([1]; Group 2 mean, D 58 after MCAO, phase 3, high dose (sequence lvh, b238, inferred)): 0.83 | Hindlimb Placing Total Score ([1]; Group 2 mean, D 60 after MCAO, phase 3, high dose (sequence lvh, b238, inferred)): 0.23 | Hindlimb Placing Total Score ([1]; Group 3 mean, D 44 after MCAO, phase 2): 0.90 | Hindlimb Placing Total Score ([1]; Group 3 mean, D 46 after MCAO, phase 2): 0.30 | Effect on global body control (body swing test) ([2]; Example 2, low (0.63 mg/kg) or high (2 mg/kg) dose b.i.d. p.o., started 4 weeks post MCAO, dose-dependent, reversible): effective to improve global body control; also recorded: significant improvement | Body swing performance ([2]; Example 17 dose escalation, groups diverged before treatment initiation): no conclusions can be drawn | Body Swing Test (% right Swing) ([2]; D 44 after MCAO): 39.56% | Body Swing Test (% right Swing) ([2]; D 46 after MCAO): 40.44%
